For one compound, specific activity results are on record in article PMC5353671, “A bacterial aromatic aldehyde dehydrogenase critical for the efficient catabolism of syringaldehyde” (Scientific Reports, 2017).

One test has as its target T1, SLG_38120 (Sphingobium sp. SYK-6, UniProt G2IRC1).
T1 construct: gene feaB; coding region in pET21a(+), extract of E. coli BL21(DE3)
T1 sequence (G2IRC1 1-493): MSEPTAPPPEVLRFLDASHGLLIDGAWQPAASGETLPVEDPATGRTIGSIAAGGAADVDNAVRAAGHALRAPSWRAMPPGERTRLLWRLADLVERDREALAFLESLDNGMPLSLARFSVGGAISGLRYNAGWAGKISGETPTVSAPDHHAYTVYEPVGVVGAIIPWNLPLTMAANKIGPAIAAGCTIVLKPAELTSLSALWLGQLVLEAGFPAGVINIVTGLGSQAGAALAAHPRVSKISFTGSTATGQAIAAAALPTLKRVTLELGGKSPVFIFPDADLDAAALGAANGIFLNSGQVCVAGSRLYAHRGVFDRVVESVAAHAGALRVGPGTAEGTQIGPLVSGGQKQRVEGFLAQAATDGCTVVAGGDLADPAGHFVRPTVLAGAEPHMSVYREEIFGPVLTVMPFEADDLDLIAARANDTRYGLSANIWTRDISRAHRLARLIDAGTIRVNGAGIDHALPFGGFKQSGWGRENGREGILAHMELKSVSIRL
Description: HPLC, E. coli cell extract. The test is classed as biochemical. As to conditions: 100 μM substrate, 500 μM NAD+, 30 °C.

The target in the next test is T2, SLG_11410 (Sphingobium sp. SYK-6, UniProt G2IPY8).
T2 construct: coding region in pET21a(+), extract of E. coli BL21(DE3)
T2 sequence (G2IPY8 1-498): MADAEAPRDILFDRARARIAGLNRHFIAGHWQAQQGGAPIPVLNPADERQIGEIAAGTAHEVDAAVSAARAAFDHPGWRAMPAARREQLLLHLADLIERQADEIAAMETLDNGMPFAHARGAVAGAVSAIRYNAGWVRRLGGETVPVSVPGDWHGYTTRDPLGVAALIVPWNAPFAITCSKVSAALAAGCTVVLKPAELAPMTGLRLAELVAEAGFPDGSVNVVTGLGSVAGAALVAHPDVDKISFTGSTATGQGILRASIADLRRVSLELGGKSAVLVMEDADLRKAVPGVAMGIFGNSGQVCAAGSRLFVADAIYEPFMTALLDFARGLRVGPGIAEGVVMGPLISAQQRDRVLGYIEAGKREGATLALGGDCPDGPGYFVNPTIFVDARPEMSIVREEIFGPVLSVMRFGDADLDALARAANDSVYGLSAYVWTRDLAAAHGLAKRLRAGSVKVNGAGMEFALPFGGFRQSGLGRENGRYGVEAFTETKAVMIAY
Kind of test: HPLC, E. coli cell extract. It is filed as biochemical. The following applies: 100 μM substrate, 500 μM NAD+, 30 °C.

Each structure is given as a SMILES string.

Regarding `COc1cc(C=O)cc(OC)c1O` [syringaldehyde], the specific activity entry at SLG_38120 and at SLG_11410 was “All these aromatic ALDH gene products converted SN into syringate” in each case.
